Data on four molecules can be found in publication PMC4360945, “In silico discovery and validation of potent small-molecule inhibitors targeting the activation function 2 site of human oestrogen receptor α” (Breast Cancer Research : BCR, 2015).

Broadly, the IC50 is the concentration at which inhibition is half-maximal.

For assay [1], the system named is pS2, cathepsin D and CDC2 mRNA. The assay can be described thus: Quantitative RT-PCR of oestrogen-responsive genes in MCF7 cells. Type of assay: cell-based, human. The conditions noted are these: MCF7, 24 h. The method, then:
mRNA levels were analysed by quantitative RT-PCR (qRT-PCR). For this purpose, serum-starved MCF7 cells were seeded onto six-well plates at a density of 6 × 10^5 cells/well. […] RNA was isolated after 24 hours with TRIzol reagent (Life Technologies) and purified with the RNeasy Mini Kit (QIAGEN, Valencia, CA, USA). The purified mRNA was quantified using a NanoDrop spectrophotometer (NanoDrop, Wilmington, DE, USA). RNA (0.5 μg) was reverse-transcribed using the iScript synthesis kit (Bio-Rad Laboratories, Hercules, CA, USA). cDNA product (100 ng) was added to the primer mix. The final concentration of the primers was 5 pM. The sequences of the primers used in the qRT-PCR experiments were as follows: pS2, forward [NT] and reverse [NT]; cathepsin D, forward [NT] and reverse [NT]; CDC2, forward [NT] and reverse [NT]; glyceraldehyde 3-phosphate dehydrogenase (GAPDH), forward [NT] and reverse [NT]. The fold change in expression of the gene was calculated using the 2^-ΔΔCt method with GAPDH as the internal control.

Assay [2] deals with T1, oestrogen receptor-alpha (ERα) (Homo sapiens, UniProt P03372).
T1 sequence (P03372 1-595): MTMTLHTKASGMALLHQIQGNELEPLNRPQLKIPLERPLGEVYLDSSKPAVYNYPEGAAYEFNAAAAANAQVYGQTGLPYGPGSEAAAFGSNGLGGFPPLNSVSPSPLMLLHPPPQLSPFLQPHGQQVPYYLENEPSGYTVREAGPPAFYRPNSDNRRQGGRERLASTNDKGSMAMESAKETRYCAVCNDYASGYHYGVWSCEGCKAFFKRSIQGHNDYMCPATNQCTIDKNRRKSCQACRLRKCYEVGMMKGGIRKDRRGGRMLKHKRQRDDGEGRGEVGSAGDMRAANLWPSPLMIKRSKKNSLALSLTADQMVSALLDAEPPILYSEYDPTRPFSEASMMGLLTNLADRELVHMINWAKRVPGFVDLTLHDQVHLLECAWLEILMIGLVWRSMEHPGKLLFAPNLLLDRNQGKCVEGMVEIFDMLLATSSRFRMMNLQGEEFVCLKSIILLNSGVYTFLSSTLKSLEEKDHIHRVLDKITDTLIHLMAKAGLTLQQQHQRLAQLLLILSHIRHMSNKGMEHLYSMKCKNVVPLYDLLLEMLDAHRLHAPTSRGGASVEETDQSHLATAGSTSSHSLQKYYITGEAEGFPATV
Put plainly: Transiently transfected E2-responsive luciferase reporter in TamR3 cells. Type of assay: cell-based. Also on record: endogenous in cells. The conditions noted are these: TamR3, 1 nM E2; read-out: IC50, transcriptional inhibition of transiently transfected E2-responsive luciferase reporter. On the procedure:
(§1) For transient transfection, we used pGL2.TATA.Inr.luc plasmid, which contains three copies of vitellogenin oestrogen response element (ERE) upstream of the TATA promoter (3X ERE TATA luc; Addgene plasmid 11354). This is the same plasmid used to construct pGL2.TATA.Inr.luc.neo, used to create the stable cell line T47D-KBluc.
(§2) TamR3 and TamR6 cells were grown in phenol red–free RPMI 1640 supplemented with 10% CSS and 1 μM tamoxifen. The cells were seeded on a 96-well plate (2 × 10^4 cells/well). After 24 hours, the cells were cotransfected with 50 ng each of the ERα-responsive luciferase plasmid and a constitutive Renilla reporter (to normalise for variations in transfection efficiency) using TransIT-2020 reagent (Mirus Bio, Madison, WI, USA). […] The compounds were added in a twofold dilution ranging from 0.1 to 50 μM. […] The medium contained 0.1% (v/v) ethanol and 0.1% (v/v) DMSO. Twenty-four hours after treatment, the medium was aspirated and the cells were lysed by adding 50 μl of 1× passive lysis buffer (Promega). Luciferase activities were assayed using the Dual-Luciferase Reporter Assay System (Promega).
A general note: Reporter assays use an easily measured gene product as a stand-in for the process of interest.

Another assay addresses T2, ERα LBD (Homo sapiens, UniProt P03372).
T2 construct: ERα LBD (peptides 302 to 552); made in house; host or cells: Escherichia coli BL21
T2 sequence (P03372 302-552): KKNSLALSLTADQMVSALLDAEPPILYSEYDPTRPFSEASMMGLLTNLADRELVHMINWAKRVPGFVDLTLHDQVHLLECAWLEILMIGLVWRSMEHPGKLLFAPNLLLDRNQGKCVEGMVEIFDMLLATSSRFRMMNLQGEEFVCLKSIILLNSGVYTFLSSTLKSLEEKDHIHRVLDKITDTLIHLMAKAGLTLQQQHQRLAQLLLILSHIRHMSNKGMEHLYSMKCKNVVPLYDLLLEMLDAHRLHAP
Put plainly: Bio-layer interferometry assay. Type of assay: binding. The conditions noted are these: 3 to 100 μM. The source says:
The direct reversible interaction between small molecules and the ER-α was quantified by BLI using an Octet RED apparatus (Pall ForteBio, Menlo Park, CA, USA). The LDB of the biotinylated oestrogen receptor-alpha (bERα) was produced in situ with AviTag technology (Avidity, Aurora, CO, USA). […] A six-residue histidine tag was incorporated at the C-terminus of the ERα LBD for purification of the protein. […] The bacteria were then lysed by sonication, and the resulting lysate was purified by immobilised metal ion affinity chromatography with nickel agarose beads and cation exchange chromatography (HiTrap SP; GE Healthcare Life Sciences, Pittsburgh, PA, USA). […] The compounds were dissolved in the assay buffer in a twofold dilution series ranging from 3.1 to 100 μM.
The ERα LBD was biotinylated on the AviTag by a biotin ligase expressed by the bacterial cells cotransformed with the biotin ligase plasmid pBirACm. The bERα LBD was purified by nickel-affinity chromatography and immobilised on streptavidin-coated biosensor tips. The interaction between small molecule and protein was measured in real time as a shift in the interference pattern of the incident light. A response profile was generated on the Octet RED system.

In another assay the test system is TamR3 cells. Put plainly: MTS assay, TamR3. The assay is classed as cell-based, human. The method, then: (§3) Cells were seeded in 96-well plates at a density of 5 × 10^3 cells/well. MCF7, […]-MB-453 and HeLa cells were seeded in their respective media. […] After 96 hours, 30 μl of MTS reagent (CellTiter 96 AQueous One Solution Cell Proliferation Assay reagent; Promega) were added and incubated for 90 minutes at 37°C in 5% CO2. The production of formazan was measured at 490 nm.
(In general: Tetrazolium assays rely on reduction of a dye to a coloured formazan, in cell work by metabolically active cells.)

Assay [3] concerns the target T1, oestrogen receptor-alpha (ERα). Put plainly: Transiently transfected E2-responsive luciferase reporter in TamR6 cells. The conditions noted are these: TamR6, 1 nM E2; read-out: IC50, transcriptional inhibition of transiently transfected E2-responsive luciferase reporter. Also on record: endogenous in cells. The assay is classed as cell-based. The method, then: as §1, §2

A further assay deals with MCF7 cells. The assay can be described thus: MTS assay, MCF7. The assay is classed as cell-based, human. The conditions noted are these: MCF7, 96 h, 1 nM E2; read-out: IC50, growth inhibition. The method, then:
as §3

Assay [4] has as its target T1, oestrogen receptor-alpha (ERα). Put plainly: Luciferase oestrogen receptor-alpha transcriptional assay in T47D-KBluc cells. Further details: endogenous in cells; host or cells: T47D-KBluc. Type of assay: cell-based. The method, then: ERα-positive T47D-KBluc human BCa cells were grown in phenol red–free RPMI 1640 supplemented with 10% CSS for 5 days. The cells were seeded on a 96-well plate (2 × 10^4 cells/well). […] The test compounds were screened at two concentrations: 12 μM and 30 μM. […] The medium contained 0.1% (v/v) ethanol and 0.1% (v/v) DMSO. Twenty-four hours after treatment, the medium was aspirated and the cells were lysed by adding 50 μl of 1× passive lysis buffer (Promega, Madison, WI, USA). The plates were placed on a shaker at room temperature for 15 minutes and then subjected to two freeze–thaw cycles to help lyse the cells. Next, 20 μl of the lysate from each treatment was transferred onto a white, 96-well, flat-bottomed plate (Corning Life Sciences, Corning, NY, USA), and the luminescent signal was measured after adding 50 μl of the luciferase assay reagent (Promega) on a TECAN M200 PRO microplate reader (Tecan, Männedorf, Switzerland). Differences in growth were normalised against total protein concentration, which was measured by bicinchoninic acid (BCA) assay.

A further assay has as its system TamR6 cells. Put plainly: MTS assay, TamR6. The assay is classed as cell-based, human. On the procedure: as §3
Assay [5] deals with pS2, cathepsin D and CDC2 protein. Put plainly: Western blotting of oestrogen-responsive gene products in MCF7 cells. The assay is classed as cell-based, human. The conditions noted are these: MCF7, 24 h, 1 nM E2; 12 and 6 μM. The method, then:
MCF7 cells were serum-starved in phenol red–free RPMI 1640 containing 10% CSS for 5 days. […] After 24 hours, the medium was aspirated, and the cells were washed with ice-cold phosphate-buffered saline. Cells were lysed in 1× radioimmunoprecipitation assay buffer containing one tablet of cOmplete protease inhibitor cocktail (Roche Life Science, Indianapolis, IN, USA). Cell debris was pelleted by centrifugation at 15,000 g for 10 minutes at 4°C. The supernatants were collected and quantified using the BCA assay. In each case, 25 μg of protein was loaded onto 15% (v/v) SDS-PAGE gels, separated and transferred to polyvinylidene fluoride membrane. Membranes were incubated with pS2, cathepsin D and CDC2 antibodies or control α-actin antibody. Bound antibodies were detected using horseradish peroxidase–conjugated secondary antibodies. Chemiluminescence was detected with an Amersham ECL detection kit (GE Healthcare Life Sciences), and bands were visualised using the G:BOX imager (Syngene, Frederick, MD, USA).
For orientation: In western blotting, separated proteins are transferred to a membrane and probed.

In assay [6] the target is T3, ERα AF2 site (GST-tagged ER-LBD) (Homo sapiens, UniProt P03372).
T3 construct: glutathione S-transferase (GST)-tagged ER-LBD (7.25 nM); purchased Life Technologies PV4544
T3 sequence (P03372 311-547 limits assumed): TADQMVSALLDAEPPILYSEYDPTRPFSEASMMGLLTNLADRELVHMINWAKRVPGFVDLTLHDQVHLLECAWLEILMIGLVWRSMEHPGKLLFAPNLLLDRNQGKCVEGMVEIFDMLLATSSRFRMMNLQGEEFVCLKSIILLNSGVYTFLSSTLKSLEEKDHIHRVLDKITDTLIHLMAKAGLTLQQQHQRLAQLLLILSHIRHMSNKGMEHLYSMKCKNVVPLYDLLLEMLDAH
The assay can be described thus: TR-FRET ERα coactivator (PGC-1α peptide) displacement assay. Type of assay: biochemical.
Protocol: Peptide displacement was assessed with the LanthaScreen TR-FRET ER Alpha Coactivator Assay kit (PV4544; Life Technologies) as per the instructions of the manufacturer. The compounds were tested in the range of 0.1 to 50 μM, and cold PGC-1α was added at threefold dilutions ranging from 1.8 to 50 μM.
Briefly, a twofold serial dilution of the test compounds was prepared at 100× final concentration in DMSO. The compounds were diluted 50-fold in complete assay buffer (assay buffer containing 5 mM dithiothreitol) to get a 2× final concentration and 2% DMSO. […] Ten microlitres of the diluted test compounds were added to a black, flat-bottomed, 384-well plate, followed by addition of 5 μl of the 4× ER-LBD mix.
Tb-labelled anti-GST antibody indirectly labels the ERα LBD by binding to a GST tag on the protein. […] The close proximity of fluorescein-PGC-1α to the terbium-labelled antibody causes an increase in the TR-FRET signal.

Assay [7] concerns the target T4, biotinylated oestrogen receptor-alpha ligand-binding domain (bERα LBD) (human, UniProt P03372 302-552, biotin on the AviTag).
T4 construct: Assay buffer held 0.02 mM E2
T4 sequence (looked up): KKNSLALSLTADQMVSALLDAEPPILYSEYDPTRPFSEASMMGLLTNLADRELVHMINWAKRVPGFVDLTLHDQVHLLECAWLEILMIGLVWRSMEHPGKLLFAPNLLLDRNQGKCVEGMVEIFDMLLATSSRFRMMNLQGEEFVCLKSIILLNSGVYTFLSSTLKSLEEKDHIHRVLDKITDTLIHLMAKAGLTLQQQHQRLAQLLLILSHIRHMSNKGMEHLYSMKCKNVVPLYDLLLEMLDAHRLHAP
Put plainly: BLI; Octet RED; bERα LBD bound to Super Streptavidin Sensors; 20 mM Tris pH 7.5, 500 mM NaCl, 0.2 mM TCEP, 0.02 mM E2, 5% glycerol, 5% DMSO; PGC-1α peptide in solution as positive control. The note with it: both partners purified.

“And” between values parts separate entries of the source, which are not always exact repeats. Identical values can stand only once. “Also recorded” adds a separate entry of the source.

As to `CCOc1cc(Br)cc(/C=N/NC(=O)c2ccc3c(c2)OCCO3)c1O` [VPC-16230], the “mRNA levels of pS2, cathepsin D and CDC2” value in assay [1] (in the absence of E2, 12, 6 and 3 μM) is “did not significantly inhibit; also recorded: did not significantly decrease”; in assay [1] (in the presence of 1 nM E2, 12 and 6 μM) it was “considerably reduced; also recorded: significantly decreased”. Further, the IC50 is 4.7 µM in assay [2]; 3.4 µM in the assay on TamR3 cells (TamR3, 96 h, 1 nM E2, read-out: IC50, growth inhibition); 4.7 µM in assay [3]; 7.8 µM in the assay with MCF7 cells; 5.81 µM and 5.8 µM in assay [4] (T47D-KBluc cells, 1 nM E2, 24 h, read-out: IC50, inhibition of ERα transcriptional activity (luciferase reporter)); 6.1 µM in [4] (read-out: IC50, luciferase assay at varied E2, T47D-KBluc, E2 1 nM). The 50% inhibitory concentration (IC50) in assay [4] (read-out: IC50, luciferase assay at varied E2, T47D-KBluc, E2 100 nM) came out at 6.5 µM; with TamR6 cells (TamR6, 96 h, 1 nM E2, read-out: IC50, growth inhibition), 6.3 µM; in [6] (TR-FRET, read-out: IC50, displacement of PGC-1α peptide from the AF2 site) it was 2.98 µM. Further, the “Binding to ERα LBD by BLI” value on ERα LBD is “direct and reversible interaction”. Also, the “Shift of the IC50 curve in the presence of higher concentrations of E2” value in assay [4] (T47D-KBluc, E2 1, 10, 50, 100 nM) is “did not show any significant shift”. Moreover, the “Protein levels of pS2, cathepsin D and CDC2” value in [5] is “decreased”. Besides, the “Shift of dose-response curve with increasing fluorescein-PGC-1α” value in assay [6] (fluorescein-PGC-1α 250, 500, 1000 nM, compounds 0.05 to 400 μM) is “rightward shift”.

As to `CC/C(=C(\c1ccccc1)c1ccc(OCCN(C)C)cc1)c1ccccc1` [tamoxifen, reference compound], the “Growth in the presence of 1 μM tamoxifen” value in the assay on TamR3 cells (TamR3, 1 μM in the medium) is given as “not affected”; in the assay on TamR6 cells (TamR6, 1 μM in the medium), “not affected”.

In the case of “cold PGC-1α peptide: Cold PGC-1α coactivator peptide (EAEEPSLLKKLLLAPANTQ), known AF2-interacting control [reference compound]”, the “Binding to ERα LBD by BLI” value with ERα LBD was “direct and reversible interaction”. In addition, the “FRET signal with increasing concentration of cold peptide” value in [6] (1.8 to 50 μM) is “dose-dependent decrease”.

B1: Cold peroxisome proliferator-activated receptor gamma, coactivator 1-alpha (PGC-1α) peptide (peptide)
peptide: EAEEPSLLKKLLLAPANTQ
notes: also called cold PGC-1α peptide; cold PGC-1α; source: synthetic peptide (Elim Biopharmaceuticals)
For B1, in assay [7], the binding result is listed as “binds”.
